ChEMBL document CHEMBL4602619, “Covalent inactivation of Mycobacterium thermoresistibile inosine-5'-monophosphate dehydrogenase (IMPDH)” (Bioorg Med Chem Lett, 2020)
Activity calls are given as the source filed them. The rule behind the calls is not given here.

System: Mycobacterium thermoresistibile
Experiment: Covalent binding affinity to Mycobacterium thermoresistibile IMPDH deltaCBS variant assessed as adduct formation at Cys341 by measuring 330 Da shift of increment in protein mass measured under denaturing conditions by ESI-MS spectral analysis

**Q.** For `O=P(O)(O)OC[C@H]1O[C@@H](n2cnc3c(Cl)ncnc32)[C@H](O)[C@@H]1O`, which Activity is on record?
**A.** The Activity was “Active”.
